This is an account of results in US12091425B2 (AMGEN INC., priority 2016, dated 2024).

pIC50: −log10 of the molar value.

In the first assay the target is T1, Mcl-1/Bim interaction, recombinant human Mcl-1 (171-327) (Homo sapiens, UniProt Q07820).
T1 construct: made in house
T1 sequence (Q07820 171-327): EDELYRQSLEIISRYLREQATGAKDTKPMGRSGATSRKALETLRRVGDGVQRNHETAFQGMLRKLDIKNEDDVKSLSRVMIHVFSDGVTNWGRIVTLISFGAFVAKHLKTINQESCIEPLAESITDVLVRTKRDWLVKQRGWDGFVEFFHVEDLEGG
The assay can be described thus: Cell free Mcl-1: Bim Affinity Assay (Mcl-1 HTRF). Format: binding. Particulars: TR-FRET, 0.1 nM Mcl-1 (171-327), 0.05 nM biotin-Bim (51-76). The gist of the method:
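Displacement of biotinylated Bim 51-76 peptide is followed by TR-FRET. Incubation runs overnight. Duplicate points are fitted with a four-parameter sigmoid to yield IC50.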
For orientation: TR-FRET usually uses a lanthanide donor and a delayed reading to cut background.
A word on the pIC50: it is the IC50 on a negative log10 scale, so that one unit is a factor of ten. As for `CS(=O)(=O)CCO[C@@H]1CCCCCS(=O)(=O)NC(=O)c2ccc3c(c2)N(C[C@@H]2CC[C@H]21)C[C@@]1(CCCc2cc(Cl)ccc21)CO3` [Example 1096, (1S,3′R,6′R,7′R)-6-chloro-7′-(2-(methylsulfonyl)ethoxy)-3,4-dihydro-2H,15′H-spiro [naphthalene-1,22′-[20]oxa[13]thia[1,14]diazatetracyclo[14.7.2.0^3,6.0^19,24]pentacosa [16,18,24]trien]-15′-one 13′,13′-dioxide], the pIC50 was 8.46.

`CO[C@@H]1/C=C/CCCS(=O)(=O)NC(=O)c2ccc3c(c2)N(C[C@@H]2CC[C@H]21)C[C@@]1(CCCc2cc(Cl)ccc21)CO3` [Example 1091, (1S,3′R,6′R,7′R,8′E)-6-chloro-7′-methoxy-3,4-dihydro-2H,15′H-spiro [naphthalene-1,22′-[20]oxa[13]thia[1,14]diazatetracyclo[14.7.2.0^3,6.0^19,24]pentacosa [8,16,18,24]tetraen]-15′-one 13′,13′-dioxide]: the pIC50 is 8.43.

Regarding `C[C@@H]1CC/C=C/[C@H](OCCS(C)(=O)=O)[C@@H]2CC[C@H]2CN2C[C@@]3(CCCc4cc(Cl)ccc43)COc3ccc(cc32)C(=O)NS1(=O)=O` [Example 406, (1S,3′R,6′R,7′S,8′E,12′R)-6-chloro-12′-methyl-7′-(2-(methylsulfonyl)ethoxy)-3,4-dihydro-2H,15′H-spiro[naphthalene-1,22′-[20]oxa[13]thia[1,14]diazatetracyclo[14.7.2.0^3,6.0^19,24]pentacosa [8,16,18,24]tetraen]-15′-one 13′,13′-dioxide], the pIC50 is 9.22.

On to `O=C1NS(=O)(=O)[C@H]2COC[C@H]2C/C=C/[C@H](O)[C@@H]2CC[C@H]2CN2C[C@@]3(CCCc4cc(Cl)ccc43)COc3ccc1cc32` (single isomer, unassigned) [Example 1029], for which the pIC50 is 8.35.

On to `CC[C@@H]1CC/C=C\[C@@H](NC(C)=O)[C@@H]2CC[C@H]2CN2C[C@@]3(CCCc4cc(Cl)ccc43)COc3ccc(cc32)C(=O)NS1(=O)=O` (single isomer, unassigned) [Example 1079], for which the pIC50 is 8.26.

Consider `COCCOCC1CCC=CC(O)C2CCC2CN2CC3(CCCc4cc(Cl)ccc43)COc3ccc(cc32)C(=O)NS1(=O)=O` (single isomer, unassigned) [Example 447], for which the pIC50 is 9.42.

Turning to `O=C1NS(=O)(=O)C[C@H](CO)C/C=C/[C@H](O)[C@@H]2CC[C@H]2CN2C[C@@]3(CCCc4cc(Cl)ccc43)COc3ccc1cc32` [Example 1085, (1S,3′R,6′R,7′S,8′E,11′S)-6-chloro-7′-hydroxy-11′-(hydroxymethyl)-3,4-dihydro-2H,15′H-spiro [naphthalene-1,22′-[20]oxa[13]thia[1,14]diazatetracyclo[14.7.2.0^3,6.0^19,24]pentacosa [8,16,18,24]tetraen]-15′-one 13′,13′-dioxide], the pIC50 was 8.69.

As for `CO[C@H]1/C=C/CCNS(=O)(=O)NC(=O)c2ccc3c(c2)N(C[C@@H]2CC[C@H]21)C[C@@]1(CCCc2cc(Cl)ccc21)CO3` (single isomer, unassigned) [Example 46], the pIC50 was 9.43.

Turning to `COCC[C@@H]1CC/C=C/[C@H](O)[C@@H]2CC[C@H]2CN2C[C@@]3(CCCc4cc(Cl)ccc43)COc3ccc(cc32)C(=O)NS1(=O)=O` (single isomer, unassigned) [Example 442], the pIC50 was 9.53.

Still in this assay, the particulars now being: cell free Mcl-1:Bim TR-FRET, recombinant human Mcl-1 (171-327).
With `O=C1NS(=O)(=O)CCOCCCC2CCC2CN2C[C@@]3(CCCc4cc(Cl)ccc43)COc3ccc1cc32` (stereo in doubt) [Example 827, (3S,6R,22S)-6′-chloro-3′,4′-dihydro-2′H,15H-spiro[10,20-dioxa-13-thia-1,14-diazatetracyclo[14.7.2.0^3,6.0^19,24]pentacosa-16,18,24-triene-22,1′-naphthalen]-15-one 13,13-dioxide], the pIC50 is 8.45.

For `CC1(C)CCC[C@H](O)[C@@H]2CC[C@H]2CN2C[C@@]3(CCCc4cc(Cl)ccc43)COc3ccc(cc32)C(=O)NS1(=O)=O` [Example 770, (1S,3′R,6′R,7′S)-6-chloro-7′-hydroxy-11′,11′-dimethyl-3,4-dihydro-2H,14′H-spiro[naphthalene-1,21′-[19]oxa[12]thia[1,13]diazatetracyclo[13.7.2.0^3,6.0^18,23]tetracosa[15,17,23]trien]-14′-one 12′,12′-dioxide], the pIC50 was 8.87.

Regarding `CC(C)C(=O)N[C@@H]1CCCCCS(=O)(=O)NC(=O)c2ccc3c(c2)N(C[C@@H]2CC[C@H]21)C[C@@]1(CCCc2cc(Cl)ccc21)CO3` (single isomer, unassigned) [Example 936], the pIC50 is 8.32.

Consider `C[C@H](O)C[C@H]1CC/C=C/[C@H](O)[C@@H]2CC[C@H]2CN2C[C@@]3(CCCc4cc(Cl)ccc43)COc3ccc(cc32)C(=O)NS1(=O)=O` (single isomer, unassigned) [Example 551], for which the pIC50 was 8.46.

Take `O=C1NS(=O)(=O)CCCCCC[C@H](O)[C@@H]2CC[C@H]2CN2C[C@@]3(CCCc4cc(Cl)ccc43)COc3ccc1cc32` [Example 835, (1S,3′R,6′R,7′S)-6-chloro-7′-hydroxy-3,4-dihydro-2H,16′H-spiro[naphthalene-1,23′[21]oxa[14]thia[1,15]diazatetracyclo[15.7.2.0^3,6.0^20,25]hexacosa[17,19,25]trien]-16′-one 14′,14′-dioxide]: the pIC50 was 8.46.

Turning to `CC(C)(O)[C@@H]1CC/C=C/[C@H](O)[C@@H]2CC[C@H]2CN2C[C@@]3(CCCc4cc(Cl)ccc43)COc3ccc(cc32)C(=O)NS1(=O)=O` (single isomer, unassigned) [Example 696], the negative-log IC50 (pIC50) is 9.52.

Regarding `CN[C@H]1CCCCCS(=O)(=O)NC(=O)c2ccc3c(c2)N(C[C@@H]2CC[C@H]21)C[C@@]1(CCCc2cc(Cl)ccc21)CO3` (single isomer, unassigned) [Example 927, (1S,3′R,6′R,7′S)-6-chloro-7′-(methylamino)-3,4-dihydro-2H,15′H-spiro[naphthalene-1,22′-[20]oxa[13]thia[1,14]diazatetracyclo[14.7.2.0^3,6.0^19,24]pentacosa [16,18,24]trien]-15′-one 13′,13′-dioxide or (1S,3′R,6′R,7′R)-6-chloro-7′-(methylamino)-3,4-dihydro-2H,15′H-spiro[naphthalene-1,22′-[20]oxa[13]thia[1,14]diazatetracyclo[14.7.2.0^3,6.0^19,24]pentacosa [16,18,24]trien]-15′-one 13′,13′-dioxide], the negative logarithm of the IC50 (pIC50) is 7.33.

On to `C=C1/C=C/CC[C@@H](CC)S(=O)(=O)NC(=O)c2ccc3c(c2)N(C[C@@H]2CC[C@@H]12)C[C@@]1(CCCc2cc(Cl)ccc21)CO3` [Example 872, (1S,3′R,6′R,8′E,12′R)-6-chloro-12′-ethyl-7′-methylidene-3,4-dihydro-2H,15′H-spiro[naphthalene-1,22′-[20]oxa[13]thia[1,14]diazatetracyclo[14.7.2.0^3,6.0^19,24]pentacosa [8,16,18,24]tetraen]-15′-one 13′,13′-dioxide], for which the negative logarithm of the IC50 (pIC50) was 8.20.

As to `O=C1NS(=O)(=O)C[C@@H]2C[C@@H]2CC[C@H](O)[C@@H]2CC[C@H]2CN2C[C@@]3(CCCc4cc(Cl)ccc43)COc3ccc1cc32.O=C1NS(=O)(=O)C[C@H]2C[C@H]2CC[C@H](O)[C@@H]2CC[C@H]2CN2C[C@@]3(CCCc4cc(Cl)ccc43)COc3ccc1cc32` (mixture of isomers) [Example 787], the pIC50 is 7.67.

In the case of `C[C@@H](O)C[C@H]1CC/C=C/[C@H](O)[C@@H]2CC[C@H]2CN2C[C@@]3(CCCc4cc(Cl)ccc43)COc3ccc(cc32)C(=O)NS1(=O)=O` (single isomer, unassigned) [Example 539], the pIC50 was 8.56.

For the compound `O=C1NS(=O)(=O)CCCOC[C@@H](O)[C@@H]2CC[C@H]2CN2C[C@@]3(CCCc4cc(Cl)ccc43)COc3ccc1cc32` (single isomer, unassigned) [Example 923, (3R,6R,7S,22S)-6′-chloro-7-hydroxy-3′,4′-dihydro-2′H,15H-spiro[9,20-dioxa-13-thia-1,14-diazatetracyclo[14.7.2.0^3,6.0^19,24]pentacosa-16,18,24-triene-22,1′-naphthalen]-15-one 13,13-dioxide or (3R,6R,7R,22S)-6′-chloro-7-hydroxy-3′,4′-dihydro-2′H,15H-spiro[9,20-dioxa-13-thia-1,14-diazatetracyclo[14.7.2.0^3,6.0^19,24]pentacosa-16,18,24-triene-22,1′-naphthalen]-15-one 13,13-dioxide], the negative logarithm of the IC50 (pIC50) was 7.75.

As to `CC(=O)N(C)[C@H]1CCCCCS(=O)(=O)NC(=O)c2ccc3c(c2)N(C[C@@H]2CC[C@H]21)C[C@@]1(CCCc2cc(Cl)ccc21)CO3` (single isomer, unassigned) [Example 940], the pIC50 is 7.73.

On to `O=C(C[C@@H]1CC/C=C/[C@H](O)[C@@H]2CC[C@H]2CN2C[C@@]3(CCCc4cc(Cl)ccc43)COc3ccc(cc32)C(=O)NS1(=O)=O)Nc1cccc(Cl)c1` (single isomer, unassigned) [Example 627], for which the negative-log IC50 (pIC50) is 8.00.

Take `O=C1NS(=O)(=O)CCCCC[C@@H](CO)[C@@H]2CC[C@H]2CN2C[C@@]3(CCCc4cc(Cl)ccc43)COc3ccc1cc32` (single isomer, unassigned) [Example 906, (1S,3′R,6′R,7′R)-6-chloro-7′-(hydroxymethyl)-3,4-dihydro-2H,15′H-spiro[naphthalene-1,22′-[20]oxa[13]thia[1,14]diazatetracyclo[14.7.2.0^3,6.0^19,24]pentacosa [16,18,24]trien]-15′-one 13′,13′-dioxide or (1S,3′R,6′R,7′)-6-chloro-7′-(hydroxymethyl)-3,4-dihydro-2H,15′H-spiro[naphthalene-1,22′-[20]oxa[13]thia[1,14]diazatetracyclo[14.7.2.0^3,6.0^19,24]pentacosa [16,18,24]trien]-15′-one 13′,13′-dioxide]: the negative-log IC50 (pIC50) was 8.04.

With `O=C1NS(=O)(=O)CCCCC[C@@H](NCC(F)(F)F)[C@@H]2CC[C@H]2CN2C[C@@]3(CCCc4cc(Cl)ccc43)COc3ccc1cc32` (single isomer, unassigned) [Example 930], the pIC50 was 7.71.
